Biological target: T1, angiotensin-converting enzyme (ACE) (Rattus norvegicus, UniProt P47820)
T1 construct: enzyme solution prepared from rat lung; from tissue; host or cells: rat lung
T1 sequence (P47820 36-1313): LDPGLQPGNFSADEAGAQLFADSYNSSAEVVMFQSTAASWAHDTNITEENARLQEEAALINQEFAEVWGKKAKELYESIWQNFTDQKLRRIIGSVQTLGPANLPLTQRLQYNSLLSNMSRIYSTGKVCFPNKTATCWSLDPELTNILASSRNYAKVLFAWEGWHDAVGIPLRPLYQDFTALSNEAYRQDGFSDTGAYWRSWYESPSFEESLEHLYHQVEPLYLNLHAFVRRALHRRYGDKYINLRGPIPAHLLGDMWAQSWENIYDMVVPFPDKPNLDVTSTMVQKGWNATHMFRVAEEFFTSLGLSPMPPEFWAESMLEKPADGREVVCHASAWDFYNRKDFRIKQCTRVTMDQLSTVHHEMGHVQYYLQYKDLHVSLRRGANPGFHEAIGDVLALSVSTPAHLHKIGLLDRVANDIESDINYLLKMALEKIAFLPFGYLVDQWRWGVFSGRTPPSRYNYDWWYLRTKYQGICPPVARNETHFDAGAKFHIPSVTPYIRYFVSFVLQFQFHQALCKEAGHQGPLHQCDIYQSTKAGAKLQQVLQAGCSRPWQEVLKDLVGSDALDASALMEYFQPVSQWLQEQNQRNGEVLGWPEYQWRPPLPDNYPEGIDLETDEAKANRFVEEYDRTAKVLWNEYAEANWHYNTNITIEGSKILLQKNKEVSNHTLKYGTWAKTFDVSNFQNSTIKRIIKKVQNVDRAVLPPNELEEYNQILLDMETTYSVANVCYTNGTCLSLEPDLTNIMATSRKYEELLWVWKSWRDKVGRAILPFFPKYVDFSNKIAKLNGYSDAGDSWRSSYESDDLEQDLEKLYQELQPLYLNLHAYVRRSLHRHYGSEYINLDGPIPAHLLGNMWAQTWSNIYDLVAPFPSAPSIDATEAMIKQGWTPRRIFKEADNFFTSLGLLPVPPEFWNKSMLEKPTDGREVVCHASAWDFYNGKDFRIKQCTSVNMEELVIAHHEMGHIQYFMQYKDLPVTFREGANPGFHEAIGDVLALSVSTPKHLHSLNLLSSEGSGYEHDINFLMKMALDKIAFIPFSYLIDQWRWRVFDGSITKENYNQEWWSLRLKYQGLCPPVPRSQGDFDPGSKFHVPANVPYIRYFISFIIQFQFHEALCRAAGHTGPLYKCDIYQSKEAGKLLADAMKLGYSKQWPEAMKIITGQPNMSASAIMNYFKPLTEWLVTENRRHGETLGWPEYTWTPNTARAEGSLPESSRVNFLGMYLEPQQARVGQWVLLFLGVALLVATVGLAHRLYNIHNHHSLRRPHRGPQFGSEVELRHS
Assay: Inhibitory activity against angiotensin-converting enzyme (ACE)
Format: biochemical
Settings: enzyme solution from rat lung; substrate hippuryl-histidyl-leucine; phosphate buffer pH 8.3, 37° C., HPLC of hippuric acid; samples all used in the form of dicarboxylic acid
Procedure: Inhibitory activity against angiotensin-converting enzyme (ACE)
A […] of the compound of the present invention was dissolved in 50 ml of a phosphate buffer (pH 8.3). The solution was diluted with the same phosphate buffer as above to prepare a sample solution.
A 100 μl quantity of an enzyme solution prepared from rat lung was mixed with 100 μl of the sample solution. The mixture was gently shaken at 37° C. for 10 minutes. To the mixture was added 100 μl of a solution containing 6.99 mM of hippuryl-histidyl-leucine (product of Peptide Institute, Inc., Japan) as a substrate. The resulting mixture was incubated at 37° C. for 10 minutes. The reaction was terminated by addition of 100 μl of a 10% metaphosphoric acid to the reaction mixture and the mixture was neutralized with 1N-sodium hydroxide. A 10 μl quantity of the resulting mixture was subjected to high performance liquid chromatography (HPLC) for analysis. The area valve (S) of the hippuric acid formed by the reaction was measured. A control area valve (R) was measured by repeating the same procedure as above except that 100 μl of phosphate buffer (pH 8.3) was used in place of the sample solution.
A percent inhibition was calculated by the following equation: [formula] […]

IC50: 0.114 nM
SMILES: CCCCOCCSC[C@H](NC(C)C(=O)N1CCC[C@H]1C(=O)O)C(=O)O (single isomer, unassigned) [Example 22]

— patent US4977179A, “Proline derivatives” (Otsuka Pharmaceutical Factory, Inc., priority 1986, dated 1990)
